Data reported in patent US20230066946A1, “1,5-DIPHENYLPYRAZOLYL-3-OXYALKYL ACIDS AND 1-PHENYL-5-THIENYLPYRAZOLYL-3-OXYALKYL ACIDS AND THE USE THEREOF FOR CONTROL OF UNWANTED PLANT GROWTH” (Bayer Aktiengesellschaft, priority 2019, published 2023).

Tests used:
[1] = tested on: STEME; assay: Pre-emergence herbicidal action against STEME; assay type: in vivo, Stellaria media; settings: 1280 g/ha, scored visually after about 3 weeks vs untreated controls
Source text: (§1) Seeds of mono- and dicotyledonous weed plants are placed in plastic pots in sandy loam soil (doubly sown with one species each of mono- or dicotyledonous weed plants per pot) and covered with soil. The compounds of the invention, formulated in the form of wettable powders (WP) or as emulsion concentrates (EC), are then applied onto the surface of the covering soil as aqueous suspension or emulsion with addition of 0.5% additive at a water application rate equivalent to 600 litres per hectare. After the treatment, the pots are placed in a greenhouse and kept under good growth conditions for the trial plants. After about 3 weeks, the effect of the preparations is scored visually in comparison with untreated controls as percentages. For example, 100% activity=the plants have died, 0% activity=like control plants. [table] Tables 4.1-4.15 below show the effects of selected compounds of the general formula (I) according to Tables 1 to 3 on various harmful plants at an application rate corresponding to 1280 or 320 g/ha, which have been obtained by the aforementioned experimental method.

[2] = tested on: STEME; assay: Post-emergence herbicidal action against STEME; assay type: in vivo, Stellaria media; settings: 1280 g/ha, visual rating about 3 weeks after treatment
Method: (§2) [table] Seeds of mono- and dicotyledonous weed plants are placed in plastic pots in sandy loam soil (twin sowing with one species each of mono- or dicotyledonous weed plants per pot), covered with soil and cultivated in a greenhouse under controlled growth conditions. 2 to 3 weeks after sowing, the test plants are treated at the one-leaf stage. The compounds of the invention, formulated in the form of wettable powders (WP) or as emulsion concentrates (EC), are applied to the green parts of the plants as aqueous suspension or emulsion with addition of 0.5% additive at a water application rate equivalent to 600 litres per hectare. After the test plants have been kept in the greenhouse under optimum growth conditions for about 3 weeks, the activity of the preparations is rated visually in comparison to untreated controls. For example, 100% activity=the plants have died, 0% activity=like control plants. Tables 5.1-5.16 below show the effects of selected compounds of the general formula (I) according to Tables 1 to 3 on various harmful plants at an application rate corresponding to 1280 or 320 g/ha, which have been obtained by the aforementioned experimental method.

[3] = tested on: AMARE; assay: Pre-emergence herbicidal action against AMARE; assay type: in vivo, Amaranthus retroflexus; settings: 1280 g/ha, scored visually after about 3 weeks vs untreated controls
Source text: as §1

[4] = tested on: SETVI; assay: Pre-emergence herbicidal action against SETVI; assay type: in vivo, Setaria viridis; settings: 1280 g/ha, scored visually after about 3 weeks vs untreated controls
Source text: as §1

[5] = tested on: ECHCG; assay: Post-emergence herbicidal action against ECHCG; assay type: in vivo, Echinochloa crus-galli; settings: 1280 g/ha, post-emergence at one-leaf stage, rated visually after about 3 weeks vs untreated controls
Method: as §2

[6] = tested on: AMARE; assay: Post-emergence herbicidal action against AMARE; assay type: in vivo, Amaranthus retroflexus; settings: 1280 g/ha, visual rating about 3 weeks after treatment
Method: as §2

[7] = tested on: SETVI; assay: Post-emergence herbicidal action against SETVI; assay type: in vivo, Setaria viridis; settings: 1280 g/ha, post-emergence at one-leaf stage, rated visually after about 3 weeks vs untreated controls
Method: as §2

[8] = tested on: ECHCG; assay: Pre-emergence herbicidal action against ECHCG; assay type: in vivo, Echinochloa crus-galli; settings: scored visually after about 3 weeks vs untreated controls, 100% = plants have died, 0% = like control plants
Source text: as §1

[9] = tested on: MATIN; assay: Post-emergence herbicidal action against MATIN; assay type: in vivo, Matricaria inodora; settings: 1280 g/ha, visual rating about 3 weeks after treatment
Method: as §2

| SMILES | Pre-emergence action against STEME in % [1] [%] | Post-emergence action against STEME in % [2] [%] | Pre-emergence action against AMARE in % [3] [%] | Pre-emergence action against SETVI in % [4] [%] | Post-emergence action against ECHCG in % [5] [%] | Post-emergence action against AMARE in % [6] [%] | Post-emergence action against SETVI in % [7] [%] | Pre-emergence action at 1280 g/ha against ECHCG in % [8] [%] | Post-emergence action against MATIN in % [9] [%] |
| --- | --- | --- | --- | --- | --- | --- | --- | --- | --- |
| COC(=O)[C@H](C)Oc1nn(-c2cccc(F)c2)c(-c2cccc(F)c2)c1C#N [I-126] | 100 | 100 | 100 | 100 | 90 | 100 | 90 | – | – |
| C=C(C)CNC(=O)COc1nn(-c2ccccc2F)c(-c2ccccc2)c1Br [III-001] | 100 | – | – | 100 | – | 100 | 100 | 90 | – |
| CCOC(=O)CCNC(=O)COc1nn(-c2ccc(F)cc2)c(-c2cccc(F)c2)c1Br [III-019] | 100 | – | 90 | 100 | 90 | 100 | 90 | – | 90 |
| COC(=O)COc1nn(-c2ccc(F)cc2)c(-c2cccc(F)c2)c1Br [I-107] | 100 | 90 | 90 | 90 | 90 | 100 | – | 100 | 100 |
| O=C(O)COc1nn(-c2ccc(F)cc2)c(-c2cccc(F)c2)c1Cl [I-120] | 100 | – | 100 | 100 | 90 | – | – | 90 | 90 |
| COC(=O)CCNC(=O)COc1nn(-c2ccc(F)cc2)c(-c2cccc(F)c2)c1Cl [III-026] | – | – | 90 | 90 | – | 90 | 100 | – | 90 |
| O=C(O)COc1nn(-c2ccccc2F)c(-c2ccc(F)c(F)c2)c1Br [I-136] | 100 | 100 | 100 | 100 | 100 | 90 | – | 100 | 90 |
| CCOC(=O)COc1nn(-c2ccccc2F)c(-c2ccc(F)c(F)c2)c1[N+](=O)[O-] [I-143] | 90 | 100 | 100 | 100 | 100 | 100 | – | – | 100 |
| COC(=O)C(C)Oc1nn(-c2ccccc2)c(-c2ccc(F)cc2)c1Cl (centres unmarked) [I-145] | 100 | 100 | 90 | 100 | – | – | 90 | 100 | 90 |
| O=C(COc1nn(-c2ccc(F)cc2)c(-c2cccc(F)c2)c1Br)OCc1cccc(F)c1 [I-123] | 100 | – | 100 | 90 | 90 | 90 | – | – | 90 |
| C=CCNC(=O)COc1nn(-c2c(F)cccc2F)c(-c2ccc(F)c(F)c2)c1Cl [III-068] | 90 | – | 90 | 100 | – | – | 90 | 100 | 90 |
| CCOC(=O)CCNC(=O)COc1nn(-c2cccc(F)c2)c(-c2ccccc2)c1Br [III-033] | 100 | – | 90 | 100 | – | 90 | 100 | 90 | – |
| CCOC(=O)COc1nn(-c2cc(F)c(F)cc2F)c(-c2ccccc2)c1Cl [I-093] | 100 | 100 | 100 | 100 | 100 | 100 | – | 100 | 100 |
| CC(Oc1nn(-c2c(F)cccc2F)c(-c2ccc(F)c(F)c2)c1Br)C(=O)O (centres unmarked) [I-167] | 100 | 100 | 100 | 100 | 90 | – | – | 100 | – |
| C#CCNC(=O)COc1nn(-c2ccc(F)cc2)c(-c2cccc(F)c2)c1Cl [III-023] | 100 | – | 90 | 100 | – | – | 100 | 90 | – |
| C=CCNC(=O)COc1nn(-c2ccccc2F)c(-c2ccc(F)c(F)c2)c1Cl [III-067] | 90 | 100 | 100 | 100 | – | – | 100 | 100 | 90 |
